Results taken from US10238670B2, “9-aminomethyl minocycline compounds and methods of use thereof in urinary tract infection (UTI) treatment” (Paratek Pharmaceuticals, Inc., priority 2016, dated 2019).

Experiments:
Assay in all cases: In vitro MIC, 2010 surveillance isolates
[1] = tested on: E. coli ESBL−; type: cell-based, Escherichia coli; conditions: for % R (resistance): Eucast breakpoints
[2] = tested on: E. coli ESBL+; type: cell-based, Escherichia coli; conditions: for % R (resistance): Eucast breakpoints
[3] = tested on: K. pneumoniae ESBL−; type: cell-based, Klebsiella pneumoniae
[4] = tested on: K. pneumoniae ESBL+; type: cell-based, Klebsiella pneumoniae; conditions: for % R (resistance): Eucast breakpoints
[5] = tested on: K. oxytoca; type: cell-based; conditions: for % R (resistance): Eucast breakpoints
[6] = tested on: E. cloacae CeftazS; type: cell-based; conditions: for % R (resistance): Eucast breakpoints
[7] = tested on: E. cloacae CeftazR; type: cell-based; conditions: for % R (resistance): Eucast breakpoints
[8] = tested on: Enterobacter spp; type: cell-based; conditions: for % R (resistance): Eucast breakpoints
[9] = tested on: A. baumanii; type: cell-based
[10] = tested on: Acinetobacter spp; type: cell-based
[11] = tested on: MSSA; type: cell-based
[12] = tested on: MRSA; type: cell-based
[13] = tested on: MS CoNS; type: cell-based, Coagulase-Negative Staphylococcus
[14] = tested on: MR CoNS; type: cell-based, Coagulase-Negative Staphylococcus
[15] = tested on: E. faecalis VS; type: cell-based
[16] = tested on: E. faecalis VNS; type: cell-based
[17] = tested on: E. faecium VS; type: cell-based; conditions: for % R (resistance): Eucast breakpoints
[18] = tested on: E. faecium VNS; type: cell-based; conditions: for % R (resistance): Eucast breakpoints

Question: What does the source list for amoxicillin-clavulanic acid [Amox/clav]?
Answer: % R (resistance) ([1]; Asia/Pac): 14.2%; MIC90 ([1]; Asia/Pac, N=282): > 8 µg/mL; % R (resistance) ([1]; Europe): 17.7%; MIC90 ([1]; Europe, N=1533): > 8 µg/mL; MIC90 ([1]; L. Amer, N=389): > 8 µg/mL; MIC90 ([1]; N America, N=1172): > 8 µg/mL; % R (resistance) ([2]; Asia/Pac): 39.3%; MIC90 ([2]; Asia/Pac, N=219): > 8 µg/mL; % R (resistance) ([2]; Europe): 70.1%; MIC90 ([2]; Europe, N=274): > 8 µg/mL; MIC90 ([2]; L. Amer, N=168): > 8 µg/mL; MIC90 ([2]; N America, N=134): > 8 µg/mL; % R (resistance) ([3]; Asia/Pac, Eucast breakpoints): 3.7%; MIC90 ([3]; Asia/Pac, N=189): 8 µg/mL; % R (resistance) ([3]; Europe, Eucast breakpoints): 7.2%; MIC90 ([3]; Europe, N=361): 8 µg/mL; MIC90 ([3]; L. Amer, N=160): 8 µg/mL; % R (resistance) ([3]; N America, CLSI breakpoints): 0%; MIC90 ([3]; N America, N=671): 4 µg/mL; % R (resistance) ([4]; Asia/Pac): 72.6%; MIC90 ([4]; Asia/Pac, N=124): > 8 µg/mL; % R (resistance) ([4]; Europe): 84.1%; MIC90 ([4]; Europe, N=151): > 8 µg/mL; MIC90 ([4]; L. Amer, N=209): > 8 µg/mL; MIC90 ([4]; N America, N=108): > 8 µg/mL; % R (resistance) ([5]; Asia/Pac): 23.5%; MIC90 ([5]; Asia/Pac, N=17): > 8 µg/mL; % R (resistance) ([5]; Europe): 14.6%; MIC90 ([5]; Europe, N=158): > 8 µg/mL; MIC90 ([5]; L. Amer, N=25): > 8 µg/mL; MIC90 ([5]; N America, N=177): > 8 µg/mL; % R (resistance) ([6]; Asia/Pac): 94%; MIC90 ([6]; Asia/Pac, N=100): > 8 µg/mL; % R (resistance) ([6]; Europe): 92.3%; MIC90 ([6]; Europe, N=183): > 8 µg/mL; MIC90 ([6]; L. Amer, N=57): > 8 µg/mL; MIC90 ([6]; N America, N=210): > 8 µg/mL; % R (resistance) ([7]; Asia/Pac): 100%; MIC90 ([7]; Asia/Pac, N=63): > 8 µg/mL; % R (resistance) ([7]; Europe): 100%; MIC90 ([7]; Europe, N=72): > 8 µg/mL; MIC90 ([7]; L. Amer, N=42): > 8 µg/mL; MIC90 ([7]; N America, N=77): > 8 µg/mL; % R (resistance) ([8]; Asia/Pac): 96.2%; MIC90 ([8]; Asia/Pac, N=52): > 8 µg/mL; % R (resistance) ([8]; Europe): 91.5%; MIC90 ([8]; Europe, N=82): > 8 µg/mL; MIC90 ([8]; L. Amer, N=42): > 8 µg/mL; MIC90 ([8]; N America, N=101): > 8 µg/mL; MIC90 ([9]; Asia/Pac, N=275): > 8 µg/mL; MIC90 ([9]; Europe, N=145): > 8 µg/mL; MIC90 ([9]; L. Amer, N=275): > 8 µg/mL; MIC90 ([9]; N America, N=154): > 8 µg/mL; MIC90 ([10]; Europe, N=43): > 8 µg/mL; MIC90 ([10]; N America, N=42): > 8 µg/mL; % R (resistance) ([11]; Asia/Pac, Eucast breakpoints): 0%; MIC90 ([11]; Asia/Pac, N=641): ≤ 1 µg/mL; % R (resistance) ([11]; Europe, Eucast breakpoints): 0%; MIC90 ([11]; Europe, N=2109): ≤ 1 µg/mL; % R (resistance) ([11]; L. Amer, CLSI breakpoints): 0%; MIC90 ([11]; L. Amer, N=590): ≤; % R (resistance) ([11]; N America, CLSI breakpoints): 0.1%; MIC90 ([11]; N America, N=2373): ≤ 1 µg/mL; % R (resistance) ([12]; Asia/Pac, Eucast breakpoints): 100%; MIC90 ([12]; Asia/Pac, N=428): > 8 µg/mL; % R (resistance) ([12]; Europe, Eucast breakpoints): 100%; MIC90 ([12]; Europe, N=750): > 8 µg/mL; % R (resistance) ([12]; L. Amer, CLSI breakpoints): 100%; MIC90 ([12]; L. Amer, N=506): > 8 µg/mL; % R (resistance) ([12]; N America, CLSI breakpoints): 100%; MIC90 ([12]; N America, N=2508): > 8 µg/mL; % R (resistance) ([13]; Asia/Pac, Eucast breakpoints): 0%; MIC90 ([13]; Asia/Pac, N=18): ≤ 1 µg/mL; % R (resistance) ([13]; Europe, Eucast breakpoints): 0%; MIC90 ([13]; Europe, N=185): ≤ 1 µg/mL; % R (resistance) ([13]; L. Amer, CLSI breakpoints): 0%; MIC90 ([13]; L. Amer, N=67): ≤ 1 µg/mL; % R (resistance) ([13]; N America, CLSI breakpoints): 0%; MIC90 ([13]; N America, N=191): ≤ 1 µg/mL; % R (resistance) ([14]; Asia/Pac, Eucast breakpoints): 100%; MIC90 ([14]; Asia/Pac, N=77): > 8 µg/mL; % R (resistance) ([14]; Europe, Eucast breakpoints): 100%; MIC90 ([14]; Europe, N=510): > 8 µg/mL; % R (resistance) ([14]; L. Amer, CLSI breakpoints): 100%; MIC90 ([14]; L. Amer, N=301): > 8 µg/mL; % R (resistance) ([14]; N America, CLSI breakpoints): 100%; MIC90 ([14]; N America, N=461): 8 µg/mL; % R (resistance) ([15]; Asia/Pac, Eucast breakpoints): 0%; MIC90 ([15]; Asia/Pac, N=214): ≤ 1 µg/mL; % R (resistance) ([15]; Europe, Eucast breakpoints): 0%; MIC90 ([15]; Europe, N=669): ≤ 1 µg/mL; % R (resistance) ([15]; L. Amer, CLSI breakpoints): 0%; MIC90 ([15]; L. Amer, N=290): ≤ 1 µg/mL; % R (resistance) ([15]; N America, CLSI breakpoints): 0%; MIC90 ([15]; N America, N=863): ≤ 1 µg/mL; range of MICs (N <10, shown instead of MIC90) ([16]; Asia/Pac, N=1): ≤1; % R (resistance) ([16]; Europe, Eucast breakpoints): 0%; range of MICs (N <10, shown instead of MIC90) ([16]; Europe, N=8): ≤1-2; % R (resistance) ([16]; L. Amer, CLSI breakpoints): 0%; range of MICs (N <10, shown instead of MIC90) ([16]; L. Amer, N=7): ≤1-2; % R (resistance) ([16]; N America, CLSI breakpoints): 0%; MIC90 ([16]; N America, N=38): ≤ 1 µg/mL; % R (resistance) ([17]; Asia/Pac): 91.5%; MIC90 ([17]; Asia/Pac, N=106): > 8 µg/mL; % R (resistance) ([17]; Europe): 93.4%; MIC90 ([17]; Europe, N=303): > 8 µg/mL; MIC90 ([17]; L. Amer, N=51): > 8 µg/mL; MIC90 ([17]; N America, N=115): > 8 µg/mL; % R (resistance) ([18]; Asia/Pac): 100%; MIC90 ([18]; Asia/Pac, N=24): > 8 µg/mL; % R (resistance) ([18]; Europe): 100%; MIC90 ([18]; Europe, N=71): > 8 µg/mL; MIC90 ([18]; L. Amer, N=41): > 8 µg/mL; MIC90 ([18]; N America, N=478): > 8 µg/mL
